Paper PMC11882969 (Nature Communications, 2025)
Several values for one entry are separate records, joined by “and”; a condition that tells them apart may be missing. Equal values may be shown once. Read-outs that look alike come from different tables or passages of the source.

Molecular target: hCB1 (Homo sapiens, UniProt P21554)
Assay: bioSensAll ebBRET signaling profiling, hCB1
Type: cell-based
Set-up: host or cells: HEK293SL cells, transient PEI transfection
Conditions: for Gi1 hCB1 response: Gi1 biosensor; for Gi1 hCB1 / GoB hCB1: single replicate values, FigS6a; for Emax [95% CI]: normalized to CP-55,940; for EC50: read-out: EC50 [95% CI]

Chain of hCB1 (P21554 whole entry): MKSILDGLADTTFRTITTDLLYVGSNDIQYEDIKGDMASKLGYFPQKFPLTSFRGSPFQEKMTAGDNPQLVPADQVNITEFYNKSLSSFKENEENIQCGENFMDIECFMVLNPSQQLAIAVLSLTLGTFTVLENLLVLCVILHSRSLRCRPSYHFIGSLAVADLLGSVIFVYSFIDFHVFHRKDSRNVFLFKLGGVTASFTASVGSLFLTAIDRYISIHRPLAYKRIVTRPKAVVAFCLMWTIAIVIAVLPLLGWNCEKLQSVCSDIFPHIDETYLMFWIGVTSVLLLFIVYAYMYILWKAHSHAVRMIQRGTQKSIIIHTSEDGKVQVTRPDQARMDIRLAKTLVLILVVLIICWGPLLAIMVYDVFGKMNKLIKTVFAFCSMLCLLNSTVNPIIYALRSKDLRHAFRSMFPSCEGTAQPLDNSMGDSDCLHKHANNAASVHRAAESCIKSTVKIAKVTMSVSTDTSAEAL

## COC(=O)[C@@H]1[C@@H]2CCC[C@@H]2CN1C(=O)c1cc(C)n(-c2cccc(Cl)c2)n1 (racemic) [‘10010]
Log [Compound] (M) -12.8861
  Gi1 hCB1 response: 1.8014
  Gi1 hCB1: 1.322
  GoB hCB1: 1.59
Log [Compound] (M) -13, individual replicate values
  Gi1 hCB1 response: -0.8396 and -0.9068
Log [Compound] (M) -4.22186
  Gi1 hCB1: 75.9694
  GoB hCB1: 69.5491
Log [Compound] (M) -4.63927
  Gi1 hCB1: 67.922
  GoB hCB1: 64.6397
Log [Compound] (M) -5.05788
  Gi1 hCB1: 66.8428
  GoB hCB1: 63.4708
Log [Compound] (M) -5.47381
  Gi1 hCB1: 60.337
  GoB hCB1: 61.9062
Log [Compound] (M) -5.89285
  Gi1 hCB1: 45.2596
  GoB hCB1: 36.262
Log [Compound] (M) -6.31878
  Gi1 hCB1: 29.1955
  GoB hCB1: 27.8098
Log [Compound] (M) -6.72585
  Gi1 hCB1: 16.0606
  GoB hCB1: 11.4989
Log [Compound] (M) -7.14267
  Gi1 hCB1: 6.117
  GoB hCB1: 3.514
Log [Compound] (M) -7.55284
  Gi1 hCB1: 3.804
  GoB hCB1: 2.9568
Log [Compound] (M) -8
  Gi1 hCB1: 3.373
  GoB hCB1: 0.9427
Log [Compound] (M) -8.22186
  Gi1 hCB1: 2.679
  GoB hCB1: -4.812
Log [Compound] (M) -8.39794
  Gi1 hCB1: 2.664
  GoB hCB1: -1.197
Log [Compound] (M) -8.68787
  Gi1 hCB1: 1.0911
  GoB hCB1: -4.812
Log [Compound] (M) -9.15521
  Gi1 hCB1: 1.8
  GoB hCB1: -5.028
Log [Compound] (M) -9.61989
  Gi1 hCB1: 0.8444
  GoB hCB1: -4.38
Log [Compound] (M) -10.0969
  Gi1 hCB1: 1.662
  GoB hCB1: -4.057
Log [Compound] (M) -10.5529
  Gi1 hCB1: 2.648
  GoB hCB1: 1.212
Log [Compound] (M) -11.0177
  Gi1 hCB1: 0.9524
  GoB hCB1: -2.384
Log [Compound] (M) -11.4949
  Gi1 hCB1: 2.417
  GoB hCB1: -4.326
Log [Compound] (M) -11.9208
  Gi1 hCB1: 1.261
  GoB hCB1: -0.06441
Log [Compound] (M) -12.3979
  Gi1 hCB1: 1.908
  GoB hCB1: 2.4173
Log [Compound] (M) -13
  Gi1 hCB1: 2.232 and 1.538
  GoB hCB1: 0.8707 and 1.266
hCB1 Gi1
  pEC50 [95% CI]: 6.1 [6.0 – 6.1]
  Emax [95% CI]: 74 [70 – 74]
  EC50: 0.814 µM
hCB1 GoB
  pEC50 [95% CI]: 6.1 [6.0 – 6.2]
  Emax [95% CI]: 71 [67 – 75]
  EC50: 0.801 µM
hCB1 Gz
  pEC50 [95% CI]: 5.9 [5.4 – 6.3]
  Emax [95% CI]: 144 [113 –175]
  EC50: 1.4 µM
